The values that follow are results of earlier work, collected in US20080161587A1, “Crystallization method for purification of calcipotriene” (Teva Pharmaceuticals USA, Inc., priority 2002, published 2008).

As for `C=C1/C(=C\C=C2/CCC[C@]3(C)[C@@H]([C@H](C)/C=C/[C@@H](O)C4CC4)CC[C@@H]23)C[C@@H](O)C[C@@H]1O` [calcipotriene, (5Z, 7E, 22E, 24S)-24-cyclopropyl-9,10-secochola-5,7,10(19), 22-tetraene-1α, 3β, 24-triol], the “solubility in highly apolar solvents” value (highly a polar solvents (e.g. hydrocarbons)) is recorded as “essentially insoluble”. Also, the “solubility in alcoholic solvents” value (methanol, ethanol, and isopropanol (IPA)) is recorded as “highly soluble”. The “solubility of calcipotriene in methyl formate” value (solvent methyl formate) was “about 1 g calcipotriene/150 mL of methyl formate”.
